Laboratory results reported in patent US7294687B2, “Parenteral formulations of a peptide for the treatment of systemic lupus erythematosus” (TEVA Pharmaceutical Industries, Ltd., priority 2003, dated 2007).

System: SLE subjects
Experiment: Phase Ib multiple dose clinical study, tolerability and safety
Assay type: in vivo, human
Conditions: multiple subcutaneous doses of 0.5, 1 or 2.5 mg in 120 mg Captisol®; 12 sc injections
Method: This study is being performed in order to evaluate the safety and tolerability of repeated Compound 1 sc administration to SLE subjects. […] The investigational product is administered every other day (excluding weekends) for a total of 12 sc injections, i.e. 3 doses a week for 4 weeks. Subjects are monitored on planned visits scheduled at 2, 4, 8 and 12 weeks after start of dosing. Safety and tolerability are evaluated using tests similar to those described in the Phase Ia Clinical Study above.

Substance: H-GYYWSWIRQPPGKGEEWIG-OH [Compound 1]
- safety and tolerability, Phase Ib: safe and well tolerated
